Test results taken from patent publication US20080096951A1 (SB Pharmo Puerto Rico Inc., priority 2002, published 2008).
Converted amounts (≈) assume the structure as drawn. Where two headings read alike, the source gives them in different places.

What was measured:
physchem = details: 25 °C, water, thermodynamic from solid
Protocol: Glass vials containing water and excess amount of carvedilol salts were shaken by a mechanical shaker at ambient conditions. Aliquots were taken out at various time-point, filtered through 0.45 μm Acrodisc GHP filter. The pH of the filtered solutions was measured and suitable dilution was performed prior to UV-Vis analysis of carvedilol concentration.

[1] = cited from earlier work

- solubility at 1 h (physchem): 9.8 µg/mL (≈ 24.1 µM)
- solubility at 24 h (physchem): 11.6 µg/mL (≈ 28.5 µM)
Compound: COc1ccccc1OCCNCC(O)COc1cccc2[nH]c3ccccc3c12 (racemic) [Carvedilol Free Base]
- solubility ([1]; above pH 9.0): < 1 µg/mL
- saturation solubility ([1]; pH 5, room temperature): ~100 µg/mL
- saturation solubility ([1]; pH 7, room temperature): ~23 µg/mL
